Results taken from patent US20070027088A1 (priority 2003, published 2007).
“Also recorded” adds a separate entry of the source. Where a SMILES comes first, the peptide text is derived from it. [ ]: non-standard residue; d: D form.

Tested on: IL-2 RNA
Conditions: cited from earlier work

Molecule | inhibition of expression of IL-2 RNA
YNKKKATVQELD | 18-40 fold

Tested on: human PBMCs stimulated with SEB
Format: cell-based
Conditions: not given

Molecule | inhibitory activity of alanine substitution constructs | inhibition of blastogenesis | inhibition of SEB proliferation (words) | loss of inhibiting activity compared with original 12-mer peptide | inhibition of SEB proliferation | inhibition of proliferative effects of the toxin
CMYGGVAEHEGN [A at 7] | better inhibition of biological activity than the original 12-mer peptide | – | – | – | – | –
TTT [reference compound] | – | not effective | – | – | – | –
CMYKK | – | – | comparable and at high concentrations better than the original 12-mer peptide; also recorded: more effectively than the 12-mer peptide 6343 | – | – | –
TEHEGN | – | – | – | 48% | – | –
YYY [reference compound] | – | not inhibitory | – | – | – | –
acetylated CMY | – | – | did not significantly change the inhibitory effects of CMY | – | – | –
cmy-NH2 | – | effective in inhibiting blastogenesis of the toxins | – | – | – | –
CMYGGVTEHE | – | – | – | 54% | – | –
CMAGGVTEHEGN [SEQ ID NO: 10] | significant loss of the inhibitory properties; also recorded: complete loss of the inhibitory properties | – | – | – | – | –
AMYGGVTEHEGN [SEQ ID NO: 8] | significant loss of the inhibitory properties | – | – | – | – | –
CSCC[C@@H](NC(=O)[C@H](N)CS)C(=O)N[C@H](Cc1ccc(O)cc1)C(=O)O [CMY*] (H-[dC]-[dM]-[dY]-OH) | – | – | significantly greater inhibitory effects than the control 12-mer peptide or their respective L-conformation peptides; also recorded: most effective in blocking superantigen activity | – | – | –
EHEGNCMYGGVT [6343S, reference compound] | – | – | minimal effect on bacterial toxin proliferation | – | less than 20% | –
CAYGGVTEHEGN [SEQ ID NO: 9] | significant loss of the inhibitory properties | – | – | – | – | –
YGGVTEHEGN | – | – | – | approximately 50% | – | –
AAA [reference compound] | – | not effective | – | – | – | –
CAY | – | effective in inhibiting blastogenesis of the toxins | – | – | – | –
CMYGGVTAHEGN [A at 8] | better inhibition of biological activity than the original 12-mer peptide | – | – | – | – | –
AMY | – | effective in inhibiting blastogenesis of the toxins | – | – | – | –
cmy-OH | – | effective in inhibiting blastogenesis of the toxins | – | – | – | –
CMYGGV | – | – | – | 52% | – | –
CSCC[C@@H](NC(=O)[C@H](N)Cc1ccc(O)cc1)C(=O)N[C@H](CS)C(=O)O [YMC*] (H-[dY]-[dM]-[dC]-OH) | – | – | significantly greater inhibitory effects than the control 12-mer peptide or their respective L-conformation peptides; also recorded: most effective in blocking superantigen activity | – | – | –
CMYGK | – | – | comparable to that of the original 12 amino acid peptide; also recorded: more effectively than the 12-mer peptide 6343 | – | – | –
MYC | – | effective in inhibiting blastogenesis of the toxins | – | – | – | –
MYGGVTEHEGN | – | – | – | approximately 30% | – | –
CMYGGVTEHEG | – | – | – | 18% | – | –
CYM | – | effective in inhibiting blastogenesis of the toxins | – | – | – | –
CMYG | – | – | – | – | – | comparatively little effect in the inhibition of toxin regardless of concentration

Tested on: superantigen shock in Balb/c mice (SEB)
Conditions: mouse, in vivo

Molecule | protection against superantigen shock
CSCC[C@@H](NC(=O)[C@H](N)CS)C(=O)N[C@H](Cc1ccc(O)cc1)C(=O)O [CMY*] (H-[dC]-[dM]-[dY]-OH) | provided some protection against superantigen-induced shock
CSCC[C@@H](NC(=O)[C@H](N)Cc1ccc(O)cc1)C(=O)N[C@H](CS)C(=O)O [YMC*] (H-[dY]-[dM]-[dC]-OH) | quite effective in protecting mice against shock

Same assay, conditions: mouse, in vivo, ip

Molecule | % SURVIVAL | SURVIVORS/INJECTED
CSCC[C@@H](NC(=O)[C@H](N)CS)C(=O)N[C@H](Cc1ccc(O)cc1)C(=O)O [CMY*] (H-[dC]-[dM]-[dY]-OH) | 33% | 2/6
CSCC[C@@H](NC(=O)[C@H](N)Cc1ccc(O)cc1)C(=O)N[C@H](CS)C(=O)O [YMC*] (H-[dY]-[dM]-[dC]-OH) | 83% | 5/6

Tested on: bacterial toxins
Conditions: mouse, in vivo; cited from earlier work

Molecule | rescue from lethal effects of bacterial toxins
YNKKKATVQELD | rescues mice from the lethal effects of bacterial toxins
